Results reported in patent US20220267352A1, “RAPAMYCIN ANALOGS AND USES THEREOF” (Anakuria Therapeutics, Inc., priority 2021, published 2022).

What was measured:
[1] = tested on: pS6K1 T389 and pAkt S473 in PC3 cells; assay: Western blot based pS6K1 and pAKT assay at 24 and 48 hour timepoints; assay type: cell-based
Description: Example 57: Western Blot Based pS6K1 and pAKT Assay at 24 and 48 Hour Timepoints
Assay Protocol: • 1. Seed six well plate with 500,000 PC3 cells per well and incubate for 20˜24 hour. • 2. Add compounds into the cell plate. Incubate for 24 to 48 hours. • 4. Plate is placed on ice and the media is removed via aspiration. The wells are washed with 1 mL of 1x PBS and then fully aspirated. • 5. 110 μL of 1% Triton Lysis Buffer is added and each well is scraped vigorously. • 6. Cell homogenates are transferred to 1.5 mL eppendorf tubes on ice and spun down at 4° C. for 10 minutes at 10,000 rpm. • 7. Protein concentration of resulting cell lysates were quantified utilizing a Bradford assay and the samples run analyzed via Western blot on 4-12% Bis/Tris gels with 1×MES buffer. • 8. The gels were transferred onto membranes at 50V for 100 minutes, blocked with Odyssey Blocking buffer for 30 minutes then incubated overnight with primary antibody (pS6K1 T389 Rabbit or pAkt S473 Rabbit) overnight at 4° C. on a rotator. • 9. The membranes were washed 3× with TBS-T with a 5 minute incubation between each wash then incubated with secondary antibody (LiCor IRDye 800 Donkey Anti Rabbit) for at least 30 minutes. • 10. The membranes were washed 3× with TBS-T with a 5 minute incubation between each wash. • 11. The gels were then incubated for 5 minutes with PBS at room temperature then imaged using a Li-Cor.
Compounds that are not selective by comparing pS6K1 and pAKT IC50 by kinase assays are indicated by “NO” in the “mTORC1 selective @ 90 min” column of Table 4. […] Compounds that are not selective at the 24 hrs mark are indicated by “NO” in the “mTORC1 selective @ 24 hrs” column of Table 4. “N/A” stands for “not assayed” and “N/C” stands for “not calculated”.

[2] = tested on: p-p70 S6 Kinase (Thr389) in MCF-7 cells; assay: AlphaLISA Ultra pS6K1 assay; assay type: cell-based; conditions: Homo sapiens, 1.5 h; MCF7 cells, 90 min
In short: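 Phospho-S6K1 (Thr389) quantified by AlphaLISA Ultra read-out (2 h acceptor, then 2 h donor beads) in lysates of MCF-7 cells. Cells were plated 20–24 h before, refed 2 h, exposed to compounds for 90 min at 0.5% final DMSO, and lysates stored at −80 °C.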

| Compound | mTORC1 selective @ 24 hrs [1] | IC50 [2] |
| --- | --- | --- |
| CO[C@@H]1C[C@H](C[C@@H](C)[C@@H]2CC(=O)[C@H](C)/C=C(\C)[C@@H](O)[C@@H](OC)C(=O)[C@H](C)C[C@H](C)/C=C/C=C/C=C(\C)[C@@H](OCC3COCCO3)C[C@@H]3CC[C@@H](C)[C@@](O)(O3)C(=O)C(=O)N3CCCC[C@H]3C(=O)O2)CC[C@H]1OC(F)F (stereo partly drawn) [I-9, (24E,26E,28E,29E,32R,33S,34R,35R,37S,39S,41S,42S,44R,45R,55R)-42-[(1R)-2-[(1S,3R,4R)-4-(difluoromethoxy)-3-methoxy-cyclohexyl]-1-methyl-ethyl]-41-(1,4-dioxan-2-ylmethoxy)-44,55-dihydroxy-45-methoxy-32,33,34,35,46,47-hexamethyl-66,67-dioxa-56-azatricyclohexatriaconta-24,26,28(46),29(47)-tetraene-48,49,50,51,52-pentone] | Yes | 1 to 10 nM |
| CO[C@@H]1C[C@H](C[C@@H](C)[C@@H]2CC(=O)[C@H](C)/C=C(\C)[C@@H](O)[C@@H](OC)C(=O)[C@H](C)C[C@H](C)/C=C/C=C/C=C(\C)[C@@H](OCCOC3COC3)C[C@@H]3CC[C@@H](C)[C@@](O)(O3)C(=O)C(=O)N3CCCC[C@H]3C(=O)O2)CC[C@H]1OCCCN1CCOCC1 [I-14, (27E,29E,31E,32E,39R,40S,41R,42R,44S,46S,48S,49S,51R,52R,61R)-51,61-dihydroxy-52-methoxy-49-[(1R)-2-[(1S,3R,4R)-3-methoxy-4-(3-morpholinopropoxy)cyclohexyl]-1-methyl-ethyl]-39,40,41,42,53,54-hexamethyl-48-[2-(oxetan-3-yloxy)ethoxy]-73,74-dioxa-63-azatricyclohexatriaconta-27,29,31(53),32(54)-tetraene-55,56,57,58,59-pentone] | Yes | < 1 nM |
| CO[C@@H]1C[C@H](C[C@@H](C)[C@@H]2CC(=O)[C@H](C)/C=C(\C)[C@@H](O)[C@@H](OC)C(=O)[C@H](C)C[C@H](C)/C=C/C=C/C=C(\C)[C@@H](OCCOC3COC3)C[C@@H]3CC[C@@H](C)[C@@](O)(O3)C(=O)C(=O)N3CCCC[C@H]3C(=O)O2)CC[C@H]1OC(=O)NCCN1CCOCC1 [I-21, [(42S,44R,46R)-4-[(2R)-2-[(27E,29E,31E,32E,38R,39S,40R,41R,43S,45S,47S,48S,50R,51R,61R)-50,61-dihydroxy-51-methoxy-38,39,40,41,52,53-hexamethyl-47-[2-(oxetan-3-yloxy)ethoxy]-54,55,56,57,58-pentaoxo-75,76-dioxa-64-azatricyclohexatriaconta-27,29,31(52),32(53)-tetraen-48-yl]propyl]-46-methoxy-44-cyclohexyl] N-(2-morpholinoethyl)carbamate] | Yes | < 1 nM |
| COCCOCCO[C@H]1C[C@@H]2CC[C@@H](C)[C@@](O)(O2)C(=O)C(=O)N2CCCC[C@H]2C(=O)O[C@H]([C@H](C)C[C@@H]2CC[C@@H](OCCOC)[C@H](OC)C2)CC(=O)[C@H](C)/C=C(\C)[C@@H](OC)[C@@H](OC)C(=O)[C@H](C)C[C@H](C)/C=C/C=C/C=C/1C [I-47, (24E,26E,28E,29E,37R,38S,39R,40R,42S,44S,46S,47S,48R,49R,58R)-58-hydroxy-48,49-dimethoxy-46-[2-(2-methoxyethoxy)ethoxy]-47-[(1R)-2-[(1S,3R,4R)-3-methoxy-4-(2-methoxyethoxy)cyclohexyl]-1-methyl-ethyl]-37,38,39,40,50,51-hexamethyl-66,67-dioxa-59-azatricyclohexatriaconta-24,26,28(50),29(51)-tetraene-52,53,54,55,56-pentone] | Yes | 1 to 10 nM |
| COCCO[C@@H]1CC[C@@H](C[C@@H](C)[C@@H]2CC(=O)[C@H](C)/C=C(\C)[C@@H](O)[C@@H](OC)C(=O)[C@H](C)C[C@H](C)/C=C/C=C/C=C(\C)[C@@H](OC[C@@H]3COCCO3)C[C@@H]3CC[C@@H](C)[C@@](O)(O3)C(=O)C(=O)N3CCCC[C@H]3C(=O)O2)C[C@H]1OC [I-66, (1R,9S,12S,15R,16E,18R,19R,21R,23S,24E,26E,28E,30S,32S,35R)-30-[[(2S)-1,4-dioxan-2-yl]methoxy]-1,18-dihydroxy-19-methoxy-12-[(1R)-2-[(1S,3R,4R)-3-methoxy-4-(2-methoxyethoxy)cyclohexyl]-1-methyl-ethyl]-15,17,21,23,29,35-hexamethyl-11,36-dioxa-4-azatricyclo[30.3.1.0^4,9]hexatriaconta-16,24,26,28-tetraene-2,3,10,14,20-pentone] | Yes | 1 to 10 nM |
| CO[C@@H]1C[C@H](C[C@@H](C)[C@@H]2CC(=O)[C@H](C)/C=C(\C)[C@@H](O)[C@@H](OC)C(=O)[C@H](C)C[C@H](C)/C=C/C=C/C=C(\C)[C@@H](OCCOC3COC3)C[C@@H]3CC[C@@H](C)[C@@](O)(O3)C(=O)C(=O)N3CCCC[C@H]3C(=O)O2)CC[C@H]1OC(=O)N(C)CCN1CCOCC1 [I-18, [(43S,45R,47R)-4-[(2R)-2-[(28E,30E,32E,33E,39R,40S,41R,42R,44S,46S,48S,49S,51R,52R,62R)-51,62-dihydroxy-52-methoxy-39,40,41,42,53,54-hexamethyl-48-[2-(oxetan-3-yloxy)ethoxy]-55,56,57,58,59-pentaoxo-76,77-dioxa-64-azatricyclohexatriaconta-28,30,32(53),33(54)-tetraen-49-yl]propyl]-47-methoxy-45-cyclohexyl] N-methyl-N-(2-morpholinoethyl)carbamate] | Yes |  |
| COCCO[C@@H]1CC[C@@H](C[C@@H](C)[C@@H]2CC(=O)[C@H](C)/C=C(\C)[C@@H](O)[C@@H](OC)C(=O)[C@H](C)C[C@H](C)/C=C/C=C/C=C(\C)[C@@H](OCc3cnccn3)C[C@@H]3CC[C@@H](C)[C@@](O)(O3)C(=O)C(=O)N3CCCC[C@H]3C(=O)O2)C[C@H]1OC [I-57, (1R,9S,12S,15R,16E,18R,19R,21R,23S,24E,26E,28E,30S,32S,35R)-1,18-dihydroxy-19-methoxy-12-[(1R)-2-[(1S,3R,4R)-3-methoxy-4-(2-methoxyethoxy)cyclohexyl]-1-methyl-ethyl]-15,17,21,23,29,35-hexamethyl-30-(pyrazin-2-ylmethoxy)-11,36-dioxa-4-azatricyclo[30.3.1.0^4,9]hexatriaconta-16,24,26,28-tetraene-2,3,10,14,20-pentone] | Yes |  |
| CO[C@@H]1/C(C)=C/[C@@H](C)C(=O)C[C@@H]([C@H](C)C[C@@H]2CC[C@@H](OP(C)(C)=O)[C@H](OC)C2)OC(=O)[C@@H]2CCCCN2C(=O)C(=O)[C@]2(O)O[C@@H](CC[C@H]2C)C[C@H](OCCOC2CCOCC2)/C(C)=C/C=C/C=C/[C@@H](C)C[C@@H](C)C(=O)[C@@H]1OC [I-55, (1R,9S,12S,15R,16E,18R,19R,21R,23S,24E,26E,28E,30S,32S,35R)-12-[(1R)-2-[(1S,3R,4R)-4-dimethylphosphoryloxy-3-methoxy-cyclohexyl]-1-methyl-ethyl]-1-hydroxy-18,19-dimethoxy-15,17,21,23,29,35-hexamethyl-30-(2-tetrahydropyran-4-yloxyethoxy)-11,36-dioxa-4-azatricyclo[30.3.1.0^4,9]hexatriaconta-16,24,26,28-tetraene-2,3,10,14,20-pentone] | No |  |
